Assay results taken from patent US9216187B2, “Soyasapogenol composition” (J-OIL MILLS, INC., priority 2011, dated 2015).

Assay: Evaluation of absorption of soyasapogenol composition, blood soyasapogenol B at 1 to 12 hours and AUC (Examples 3 to 4)
Assay type: in vivo
Details: rat, plasma, oral, male SD rats, single dose with feeding needle, 100 μmol/kg body weight in terms of saponin aglycone
Protocol: To each of the obtained plasma, 0.2 M Na acetate buffer solution (pH 5.5) in an amount same as that of the plasma was added. Subsequently, 3000 units of β-glucuronidase (product name: H-2, product of Sigma-Aldrich, Co. LLC) were added, and an enzyme reaction was allowed at 37° C. for 12 hours. After termination of the reaction, 3 ml of a mixture liquid of methanol:acetonitrile (1:1) and internal standard formononetin (product of Sigma-Aldrich, Co. LLC) were added to the enzyme treatment solution, followed by centrifugation, and then a supernatant was collected. An operation of adding 3 ml of the mixture liquid of methanol:acetonitrile (1:1) to a residue and performing centrifugation was repeated twice, and a supernatant was collected after each of the operations. The collected supernatants were mixed and subjected to drying under reduced pressure using a rotary evaporator.
8-week-old male SD rats (Charles River Laboratories Japan, Inc.) were divided into groups so that one group consists of 4 rats, and each of the compositions of Examples 3 and 4 and Comparative Example 1 was suspended into a 0.5% CMC solution, followed by a single dose administration of the suspension in an equivalent amount (100 μmol/kg body weight) in terms of saponin aglycone to each of the rats with a feeding needle. Blood sampling was conducted at 1, 3, 8 and 12 hours after the administration, and plasma was obtained from each of the blood samples. Each of the obtained plasma was subjected to the pre-treatment and the HPLC-MS analysis in the same manner as in Example 1 to examine the soyasapogenol B concentration in the blood. The blood soyasapogenol B concentration at 1 to 12 hours after the administration and AUCs (areas under curve of the blood concentration) are shown in Table 3.

CC1(C)C[C@@H](O)[C@]2(C)CC[C@]3(C)C(=CC[C@@H]4[C@@]5(C)CC[C@H](O)[C@](C)(CO)[C@@H]5CC[C@]43C)[C@@H]2C1 [Comp. Ex. 1, soyasapogenol B]
AUC (100 umol/kg, 1 to 12 hours, read-out: AUC (area under curve of the blood soyasapogenol B concentration)): 2910 ng·h/mL
concentration at 1 h (1 hour, read-out: Blood Soyasapogenol B Concentration 1 hour after): 317 ng/mL
concentration at 3 h (3 hours, read-out: Blood Soyasapogenol B Concentration 3 hours after): 280 ng/mL
concentration at 8 h (8 hours, read-out: Blood Soyasapogenol B Concentration 8 hours after): 293 ng/mL
concentration at 12 h (12 hours, read-out: Blood Soyasapogenol B Concentration 12 hours after): 68.1 ng/mL
